The structures appear in SMILES notation.

The term IC50 denotes the concentration that gives 50% inhibition. A higher IC50 goes with weaker potency in that assay.

This test deals with T1, purified human HDAC6 (Homo sapiens, UniProt Q9UBN7).
T1 construct: purchased BPS Bioscience 5006
T1 sequence (Q9UBN7 1-1215): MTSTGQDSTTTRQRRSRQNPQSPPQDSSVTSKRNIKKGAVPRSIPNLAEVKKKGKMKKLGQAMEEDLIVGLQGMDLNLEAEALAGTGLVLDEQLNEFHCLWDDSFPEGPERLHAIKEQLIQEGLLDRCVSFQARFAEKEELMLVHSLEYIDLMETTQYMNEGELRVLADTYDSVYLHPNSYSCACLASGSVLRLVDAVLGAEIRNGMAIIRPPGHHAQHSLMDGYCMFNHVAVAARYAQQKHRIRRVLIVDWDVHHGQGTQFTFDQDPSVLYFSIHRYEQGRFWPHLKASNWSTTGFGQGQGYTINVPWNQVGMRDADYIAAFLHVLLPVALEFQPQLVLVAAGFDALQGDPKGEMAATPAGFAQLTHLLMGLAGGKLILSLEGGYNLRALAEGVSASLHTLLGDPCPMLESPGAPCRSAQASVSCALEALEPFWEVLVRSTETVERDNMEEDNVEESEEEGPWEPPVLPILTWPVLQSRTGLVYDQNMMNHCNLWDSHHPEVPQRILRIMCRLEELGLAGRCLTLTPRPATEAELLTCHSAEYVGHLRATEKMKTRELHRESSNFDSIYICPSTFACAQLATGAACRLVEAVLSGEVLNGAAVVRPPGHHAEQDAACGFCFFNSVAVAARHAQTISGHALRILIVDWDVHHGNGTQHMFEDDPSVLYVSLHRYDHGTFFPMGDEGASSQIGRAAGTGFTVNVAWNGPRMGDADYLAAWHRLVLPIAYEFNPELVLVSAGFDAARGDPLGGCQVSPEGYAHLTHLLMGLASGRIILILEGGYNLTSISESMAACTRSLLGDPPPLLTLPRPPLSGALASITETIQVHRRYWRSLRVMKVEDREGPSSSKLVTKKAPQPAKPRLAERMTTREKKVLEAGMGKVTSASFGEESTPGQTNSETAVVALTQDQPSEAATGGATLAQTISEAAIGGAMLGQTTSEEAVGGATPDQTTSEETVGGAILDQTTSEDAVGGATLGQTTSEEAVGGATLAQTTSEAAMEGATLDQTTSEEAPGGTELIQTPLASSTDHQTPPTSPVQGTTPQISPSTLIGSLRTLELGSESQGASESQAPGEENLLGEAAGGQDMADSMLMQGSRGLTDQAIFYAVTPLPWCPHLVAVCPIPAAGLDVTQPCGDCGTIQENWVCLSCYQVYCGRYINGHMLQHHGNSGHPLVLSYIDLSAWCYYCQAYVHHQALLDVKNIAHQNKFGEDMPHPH
Description: HDAC6 Enzyme Assay. The format is biochemical. Particulars: enzyme inhibition, substrate Ac-Arg-Gly-Lys(Ac)-AMC, 1 hour at 30° C. The method in brief: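 Purified human HDAC6 incubated 1 h at 30 °C with Ac-Arg-Gly-Lys(Ac)-AMC peptide and compound; reaction stopped with trichostatin A, then trypsin releases AMC, read by fluorescence (Ex 340/Em 460 nm). IC50 from concentration-response curves relative to DMSO controls.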
As for `Cc1c(C(=O)NO)sc2c1CN(C(=O)c1ccc(Cl)cc1)CC2` [Compound 193, 5-(4-chlorobenzoyl)-N-hydroxy-3-methyl-4,5,6,7-tetrahydrothieno[3,2-c]pyridine-2-carboxamide], the IC50 is under 50 nM.
To `Cc1c(C(=O)NO)sc2c1CN(C(=O)c1cccn1C)CC2` [Compound 194, N-hydroxy-3-methyl-5-[(1-methyl-1H-pyrrol-2-yl)carbonyl]-4,5,6,7-tetrahydrothieno[3,2-c]pyridine-2-carboxamide] belongs under 50 nM.
As for `CC1(C)CN(C(=O)c2cc3ccccc3s2)Cc2cc(C(=O)NO)sc21` [Compound 195, 5-(1-benzothien-2-ylcarbonyl)-N-hydroxy-7,7-dimethyl-4,5,6,7-tetrahydrothieno[3,2-c]pyridine-2-carboxamide], the figure is over 1000 nM; as for `CC1(C)CN(C(=O)Nc2ccc(C#N)cc2)Cc2cc(C(=O)NO)sc21` [Compound 196, N^5-(4-cyanophenyl)-N2-hydroxy-7,7-dimethyl-6,7-dihydrothieno[3,2-c]pyridine-2,5(4H)-dicarboxamide], over 1000 nM; as for `CC1(C)CN(C(=O)c2ccc3c(c2)OCCCO3)Cc2cc(C(=O)NO)sc21` [Compound 198, 5-(3,4-dihydro-2H-1,5-benzodioxepin-7-ylcarbonyl)-N-hydroxy-7,7-dimethyl-4,5,6,7-tetrahydrothieno[3,2-c]pyridine-2-carboxamide], over 1000 nM.
In the case of `Cc1nc(-c2ccccn2)sc1C(=O)N1CCc2sc(C(=O)NO)c(C)c2C1` [Compound 199, N-hydroxy-3-methyl-5-[(4-methyl-2-pyridin-2-yl-1,3-thiazol-5-yl)carbonyl]-4,5,6,7-tetrahydrothieno[3,2-c]pyridine-2-carboxamide], the IC50 was 50 to 100 nM.
As for `Cc1c(C(=O)NO)sc2c1CN(C(=O)c1cc3ccccc3s1)CC2` [Compound 205, 5-(1-benzothien-2-ylcarbonyl)-N-hydroxy-3-methyl-4,5,6,7-tetrahydrothieno[3,2-c]pyridine-2-carboxamide], the figure is under 50 nM; as for `COc1ccc(C(=O)N2CCc3sc(C(=O)NO)c(C)c3C2)cc1` [Compound 209, N-hydroxy-5-(4-methoxybenzoyl)-3-methyl-4,5,6,7-tetrahydrothieno[3,2-c]pyridine-2-carboxamide], under 50 nM.
To `Cn1cccc1C(=O)N1Cc2cc(C(=O)NO)sc2C(C)(C)C1` [Compound 210, N-hydroxy-7,7-dimethyl-5-[(1-methyl-1H-pyrrol-2-yl)carbonyl]-4,5,6,7-tetrahydrothieno[3,2-c]pyridine-2-carboxamide] belongs over 1000 nM.
To `CC(C)(C)OC(=O)N1CCc2sc(C(=O)NO)cc2C1` [Compound 212, tert-butyl 2-[(hydroxyamino)carbonyl]-6,7-dihydrothieno[3,2-c]pyridine-5(4H)-carboxylate] belongs under 50 nM; to `COc1ccc(C(=O)N2Cc3cc(C(=O)NO)sc3C(C)(C)C2)cc1` [Compound 214, N-hydroxy-5-(4-methoxybenzoyl)-7,7-dimethyl-4,5,6,7-tetrahydrothieno[3,2-c]pyridine-2-carboxamide], over 1000 nM; to `Cc1c(C(=O)NO)sc2c1CN(C(=O)c1cc3ccccc3o1)CC2` [Compound 216, 5-(1-benzofuran-2-ylcarbonyl)-N-hydroxy-3-methyl-4,5,6,7-tetrahydrothieno[3,2-c]pyridine-2-carboxamide], 50 to 100 nM.
As for `CC1(C)CN(C(=O)c2ccc(Cl)cc2)Cc2cc(C(=O)NO)sc21` [Compound 218, 5-(4-chlorobenzoyl)-N-hydroxy-7,7-dimethyl-4,5,6,7-tetrahydrothieno[3,2-c]pyridine-2-carboxamide], the IC50 was over 1000 nM.
To `CC1(C)CN(C(=O)c2ccccn2)Cc2cc(C(=O)NO)sc21` [Compound 220, N-hydroxy-7,7-dimethyl-5-(pyridin-2-ylcarbonyl)-4,5,6,7-tetrahydrothieno[3,2-c]pyridine-2-carboxamide] belongs over 1000 nM; to `Cc1c(C(=O)NO)sc2c1CN(C(=O)c1sc3ccccc3c1Cl)CC2` [Compound 221, 5-[(3-chloro-1-benzothien-2-yl)carbonyl]-N-hydroxy-3-methyl-4,5,6,7-tetrahydrothieno[3,2-c]pyridine-2-carboxamide], 50 to 100 nM; to `Cc1nc(C(=O)N2Cc3cc(C(=O)NO)sc3C(C)(C)C2)cs1` [Compound 222, N-hydroxy-7,7-dimethyl-5-[(2-methyl-1,3-thiazol-4-yl)carbonyl]-4,5,6,7-tetrahydrothieno[3,2-c]pyridine-2-carboxamide], over 1000 nM.
To `CC1(C(=O)N2Cc3cc(C(=O)NO)sc3C(C)(C)C2)CCCCC1` [Compound 224, N-hydroxy-7,7-dimethyl-5-[(1-methylcyclohexyl)carbonyl]-4,5,6,7-tetrahydrothieno[3,2-c]pyridine-2-carboxamide] belongs over 1000 nM.
As for `Cc1c(C(=O)NO)sc2c1CN(C(=O)c1ccc(C(C)(C)C)cc1)CC2` [Compound 225, 5-(4-tert-butylbenzoyl)-N-hydroxy-3-methyl-4,5,6,7-tetrahydrothieno[3,2-c]pyridine-2-carboxamide], the figure is 50 to 100 nM.
In turn, `O=C(NO)c1cc2c(s1)CN(C(=O)C13CC4CC(CC(C4)C1)C3)C2` [Compound 230, 5-(1-adamantylcarbonyl)-N-hydroxy-5,6-dihydro-4H-thieno[2,3-c]pyrrole-2-carboxamide] yielded an IC50 of 50 to 100 nM.
As for `O=C(NO)c1cc2c(s1)CN(C(=O)c1cc3ccccc3s1)C2` [Compound 231, 5-(1-benzothien-2-ylcarbonyl)-N-hydroxy-5,6-dihydro-4H-thieno[2,3-c]pyrrole-2-carboxamide], the figure is under 50 nM; as for `Cc1c(C(=O)NO)sc2c1CN(C(=O)c1ccc(-c3ccccc3)cc1)CC2` [Compound 233, 5-(biphenyl-4-ylcarbonyl)-N-hydroxy-3-methyl-4,5,6,7-tetrahydrothieno[3,2-c]pyridine-2-carboxamide], under 50 nM; as for `CC1(C)CN(C(=O)c2ccccc2Cl)Cc2cc(C(=O)NO)sc21` [Compound 234, 5-(2-chlorobenzoyl)-N-hydroxy-7,7-dimethyl-4,5,6,7-tetrahydrothieno[3,2-c]pyridine-2-carboxamide], over 1000 nM.

The values are drawn from patent US8624040B2, “Substituted hydroxamic acids and uses thereof” (Millennium Pharmaceuticals, Inc., priority 2009, dated 2014).
